Where two headings read alike, the source gives them in different places.
What was measured:
[1] = test system: IL-1β secretion, LPS-stimulated THP-1 cells; assay: LPS-induced IL-1β secretion in THP-1 macrophages (ELISA); type: cell-based, human; conditions: 0.2 μM; for increase of IL-1β secretion, factor: LPS-activated cells, 24 h; for IL-1β secretion: 1 h pre-treatment, then LPS 24 h
Procedure: (§1) To determine the influence of the tested complexes on the TNF-α and IL-1β secretions, the human monocytic leukemia cell line THP-1 was used. The cells were cultivated at 37°C in the RPMI 1640 medium supplemented with 2 mM L-glutamine, 10% fetal bovine serum (FBS), 100 U/mL of penicillin and 100 μg/mL of streptomycin in a humidified atmosphere containing 5% CO2. The stabilized cells (3rd–20th passage) were split into microtitration plates to get a concentration of 100 000 cells/mL and the differentiation to macrophages was induced by a phorbol myristate acetate (PMA) as we described previously.
(§2) Differentiated macrophages were pretreated for 1 h with 0.2 μM solutions of the tested complexes, prednisone or CuSO4 · 5 H2O dissolved in DMSO (the final DMSO concentration was 0.1%) and with 0.1% DMSO solution itself (the experimental group called vehicle); the given concentrations of the tested compounds lack the cytotoxic effect. The inflammatory response was triggered by adding 1.0 μg/mL lipopolysaccharide (LPS) dissolved in water to pretreated macrophages, control cells were without the LPS treatment. Each experiment was repeated three-times.
(§3) Macrophages pretreated with the tested compounds for 1 h were incubated with LPS for next 24 h. After this period, the medium was collected and the concentration of TNF-α and IL-1β was measured by Instant ELISA kit (eBioscience, Vienna, Austria) according to the manufacturer’s manual.

[2] = test system: primary human hepatocytes (HH1); assay: Toxicity to primary human hepatocytes; type: cell-based; conditions: 24 h, MTT; read-out: IC50 ± SD, HH1 (toxicity to primary human hepatocytes)
[3] = test system: A2780 ovarian carcinoma cells; assay: In vitro cytotoxicity, MTT assay, A2780; type: cell-based, human; conditions: 24 h, read-out: IC50 ± SD, A2780
Procedure: Figure S4. […] The cells were plated at 96-well dishes and cultured according manufacturer instructions. The tested compounds were applied to the cells for 24 h in concentrations ranging from 0.01 to 50 µM. The tested compounds were applied to the cells for 24 h. The cytotoxicity was assessed by the MTT test, measurements were performed in triplicate, and each cytotoxicity experiment was repeated three times. The data are expressed as IC50 ± SD (μM).

[4] = test system: THP-1 monocytic leukemia cells; assay: In vitro cytotoxicity, WST-1 test, THP-1; type: cell-based, human; conditions: 24 h, WST-1, serum-free medium; read-out: IC50 ± SD, THP-1
Procedure: Figure S7. […] The cells were plated at 96-well dishes and cultured according manufacturer instructions. The tested compounds were applied to the cells for 24 h in concentrations ranging from 0.01 to 50 µM. The tested compounds were applied to the cells for 24 h. The cytotoxicity was assessed by the MTT test, measurements were performed in triplicate, and each cytotoxicity experiment was repeated three times. The data are expressed as IC50 ± SD (μM).

[5] = test system: A549 lung carcinoma cells; assay: In vitro cytotoxicity, MTT assay, A549; type: cell-based, human; conditions: 24 h, read-out: IC50 ± SD, A549
Procedure: Figure S1. […] The cells were plated at 96-well dishes and cultured according manufacturer instructions. The tested compounds were applied to the cells for 24 h in concentrations ranging from 0.01 to 50 µM. The tested compounds were applied to the cells for 24 h. The cytotoxicity was assessed by the MTT test, measurements were performed in triplicate, and each cytotoxicity experiment was repeated three times. The data are expressed as IC50 ± SD (μM).

[6] = test system: HeLa cervix epitheloid carcinoma cells; assay: In vitro cytotoxicity, MTT assay, HeLa; type: cell-based, human; conditions: 24 h, read-out: IC50 ± SD, HeLa
Procedure: Figure S2. […] The cells were plated at 96-well dishes and cultured according manufacturer instructions. The tested compounds were applied to the cells for 24 h in concentrations ranging from 0.01 to 50 µM. The tested compounds were applied to the cells for 24 h. The cytotoxicity was assessed by the MTT test, measurements were performed in triplicate, and each cytotoxicity experiment was repeated three times. The data are expressed as IC50 ± SD (μM).

[7] = test system: LNCaP androgen-sensitive prostate adenocarcinoma cells; assay: In vitro cytotoxicity, MTT assay, LNCaP; type: cell-based, human; conditions: 24 h, read-out: IC50 ± SD, LNCaP
Procedure: Figure S6. […] The cells were plated at 96-well dishes and cultured according manufacturer instructions. The tested compounds were applied to the cells for 24 h in concentrations ranging from 0.01 to 50 µM. The tested compounds were applied to the cells for 24 h. The cytotoxicity was assessed by the MTT test, measurements were performed in triplicate, and each cytotoxicity experiment was repeated three times. The data are expressed as IC50 ± SD (μM).

[8] = test system: A2780cis cisplatin-resistant ovarian carcinoma cells; assay: In vitro cytotoxicity, MTT assay, A2780cis; type: cell-based, human; conditions: for IC50: 24 h, MTT, read-out: IC50 ± SD, A2780cis; for IC50(A2780cis)/IC50(A2780) ratio (resistance factor): in comparison with cisplatin
Procedure: Figure S5. […] The cells were plated at 96-well dishes and cultured according manufacturer instructions. The tested compounds were applied to the cells for 24 h in concentrations ranging from 0.01 to 50 µM. The tested compounds were applied to the cells for 24 h. The cytotoxicity was assessed by the MTT test, measurements were performed in triplicate, and each cytotoxicity experiment was repeated three times. The data are expressed as IC50 ± SD (μM).

[9] = test system: G361 malignant melanoma cells; assay: In vitro cytotoxicity, MTT assay, G361; type: cell-based, human; conditions: 24 h, read-out: IC50 ± SD, G361
Procedure: Figure S3. […] The cells were plated at 96-well dishes and cultured according manufacturer instructions. The tested compounds were applied to the cells for 24 h in concentrations ranging from 0.01 to 50 µM. The tested compounds were applied to the cells for 24 h. The cytotoxicity was assessed by the MTT test, measurements were performed in triplicate, and each cytotoxicity experiment was repeated three times. The data are expressed as IC50 ± SD (μM).

[10] = test system: TNF-α secretion, LPS-stimulated THP-1 cells; assay: LPS-induced TNF-α secretion in THP-1 macrophages (ELISA); type: cell-based, human; conditions: 0.2 μM; for increase of TNF-α secretion, factor in comparison to vehicle: LPS-activated macrophages, 24 h; for TNF-α secretion: 1 h pre-treatment, then LPS 24 h
Procedure: as §1, §2, §3

[11] = test system: all cancer cell lines (A2780, A2780cis, G361, A549, HeLa, LNCaP, THP-1); assay: Antiproliferative effect of starting compounds on all cancer cell lines; conditions: read-out: IC50, in vitro cytotoxicity of starting compounds on all cancer cell lines, 24 h
[12] = test system: aryl hydrocarbon receptor (AhR) transcriptional activity; assay: AhR gene reporter assay in AZ-AhR cells; type: cell-based, human; conditions: 24 h; complexes 10 nM – 5 μM; TCDD 10 pM – 10 μM

SMILES	increase of IL-1β secretion, factor [1]	IC50 [2] [nM]	IC50 [3] [nM]	IC50 [4] [nM]	IC50 [5] [nM]	IC50 [6] [nM]	IC50 [7] [nM]	IC50 [8] [nM]	IC50 [9] [nM]	increase of TNF-α secretion, factor in comparison to vehicle [10]	further results
F[B-](F)(F)F.O=c1c([O-])c(-c2ccccc2)[nH]c2ccccc12.[Cu+2].c1cnc2c(c1)ccc1cccnc12 [compound 2, [Cu(qui)(phen)]BF4]	practically no influence	20400 ± 1200	520 ± 100	1700 ± 200	3900 ± 1200	2700 ± 600	1900 ± 600	1700 ± 600	640 ± 200	~ 1.25	
C[C@]12C=CC(=O)C=C1CC[C@@H]1[C@@H]2C(=O)C[C@@]2(C)[C@H]1CC[C@]2(O)C(=O)CO [prednisone, reference compound]											IL-1β secretion [1]: 118.5 ± 4.8 pg/mL; TNF-α secretion [10]: 1173 ± 85 pg/mL
F[B-](F)(F)F.O=c1c([O-])c(-c2ccccc2)[nH]c2ccccc12.[Cu+2].c1ccc(-c2ccnc3c2ccc2c(-c4ccccc4)ccnc23)cc1 [compound 6, [Cu(qui)(bphen)]BF4]	6.4	5300 ± 300	570 ± 110	560 ± 100	1300 ± 400	1300 ± 400	620 ± 80	700 ± 200	720 ± 60	2	IL-1β secretion [1]: 1087 ± 101 pg/mL; IC50(A2780cis)/IC50(A2780) ratio (resistance factor) [8]: practically two times lower; TNF-α secretion [10]: 3284 ± 139 pg/mL
O=[N+]([O-])[O-].O=[N+]([O-])[O-].[Cu+2] [Cu(NO3)2 · 3H2O]											IC50 [11]: > 50000 nM
Cc1cc2cccnc2c2ncccc12 [mphen, 5-methyl-1,10-phenanthroline]											IC50 ([11]; Homo sapiens): > 50000 nM
Cc1cc2cccnc2c2ncccc12.O.O=[N+]([O-])[O-].O=c1c([O-])c(-c2ccccc2)[nH]c2ccccc12.[Cu+2] [compound 3, [Cu(qui)(mphen)]NO3 · H2O]	practically no influence	> 10000	380 ± 30	1500 ± 300	2500 ± 600	2600 ± 400	2100 ± 600	780 ± 70	530 ± 220	~ 1.25	
c1cnc2c(c1)ccc1cccnc12 [phen, 1,10-phenanthroline]											IC50 ([11]; Homo sapiens): > 50000 nM
O.O=[N+]([O-])[O-].O=c1c([O-])c(-c2ccccc2)[nH]c2ccccc12.[Cu+2].c1ccc(-c2ccnc3c2ccc2c(-c4ccccc4)ccnc23)cc1 [compound 5, [Cu(qui)(bphen)]NO3 · H2O]	6.9	3600 ± 200	660 ± 70	570 ± 80	1700 ± 300	1000 ± 200	740 ± 210	730 ± 80	960 ± 30	1.8	IL-1β secretion [1]: 1177 ± 128 pg/mL; IC50(A2780cis)/IC50(A2780) ratio (resistance factor) [8]: practically two times lower; TNF-α secretion [10]: 2873 ± 238 pg/mL
Clc1cc2c(cc1Cl)Oc1cc(Cl)c(Cl)cc1O2 [TCDD, 2,3,7,8-tetrachlorodibenzo-p-dioxin]											luciferase activity in AZ-AhR cells [12]: strongly, dose-dependently induced
c1ccc(-c2ccnc3c2ccc2c(-c4ccccc4)ccnc23)cc1 [bphen, bathophenanthroline]											IC50 [11]: > 50000 nM
F[B-](F)(F)F.F[B-](F)(F)F.[Cu+2] [Cu(BF4)2 · H2O]											IC50 [11]: > 50000 nM
O=c1c(O)c(-c2ccccc2)[nH]c2ccccc12 [Hqui, 2-phenyl-3-hydroxy-4(1H)-quinolinone]											IC50 ([11]; Homo sapiens): > 50000 nM
Cc1cc2cccnc2c2ncccc12.F[B-](F)(F)F.O.O=c1c([O-])c(-c2ccccc2)[nH]c2ccccc12.[Cu+2] [compound 4, [Cu(qui)(mphen)]BF4 · H2O]	1.6	9300 ± 600	360 ± 50	1100 ± 400	2500 ± 600	2400 ± 1000	1500 ± 600	560 ± 150	530 ± 90	1.6	
O.O.O.O.O.O=S(=O)([O-])[O-].[Cu+2] [CuSO4·5H2O, reference compound]	~1.6									1.4	
O.O=[N+]([O-])[O-].O=c1c([O-])c(-c2ccccc2)[nH]c2ccccc12.[Cu+2].c1cnc2c(c1)ccc1cccnc12 [compound 1, [Cu(qui)(phen)]NO3 · H2O]	practically no influence	> 10000	650 ± 280	2000 ± 100	2500 ± 400	2900 ± 300	2400 ± 600	830 ± 300	820 ± 150	~ 1.25	

Source: publication PMC3556092, “Cellular responses induced by Cu(II) quinolinonato complexes in human tumor and hepatic cells” (Chemistry Central Journal, 2012)
